# Laboratory results reported in ChEMBL document CHEMBL1143116, “Synthesis and biological evaluation of 5-(pyridin-2-yl)thiazoles as transforming growth factor-beta type1 receptor kinase inhibitors” (Bioorg Med Chem Lett, 2008).
# Target: T1, TGF-beta receptor type-1 (Homo sapiens) (UniProt P36897)
# T1 sequence (whole entry): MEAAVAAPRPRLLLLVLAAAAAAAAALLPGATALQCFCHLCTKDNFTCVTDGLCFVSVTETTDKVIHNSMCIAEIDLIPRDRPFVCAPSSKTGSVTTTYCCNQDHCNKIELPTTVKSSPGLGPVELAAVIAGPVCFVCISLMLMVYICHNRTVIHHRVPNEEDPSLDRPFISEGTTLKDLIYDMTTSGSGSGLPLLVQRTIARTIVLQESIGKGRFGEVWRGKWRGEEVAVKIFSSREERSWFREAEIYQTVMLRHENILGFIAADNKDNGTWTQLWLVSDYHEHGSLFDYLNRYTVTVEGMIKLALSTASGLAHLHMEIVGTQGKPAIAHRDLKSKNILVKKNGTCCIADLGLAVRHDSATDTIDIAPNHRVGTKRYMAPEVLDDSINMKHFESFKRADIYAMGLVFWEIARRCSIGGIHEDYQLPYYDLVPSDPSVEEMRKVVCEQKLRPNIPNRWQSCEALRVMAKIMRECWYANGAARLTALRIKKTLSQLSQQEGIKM
# Test: Inhibition of TGF-beta-induced ALK5 in human HaCaT cells assessed as p3TP-luciferase activity
# Type: cell-based
smiles,measurement,value
Cc1cccc(-c2sc(NCc3cccc(C(N)=O)c3)nc2-c2ccc3nccnc3c2)n1,Activity,Dose-dependent effect
